In brackets after ≈: the same amount, converted by molar mass. Like-named read-outs stand apart in the source and are kept apart here.
How the values were obtained:
stored swine waste [1] = assay: fermentation of stored swine waste in anoxic flasks (gas, VFA, L-lactate, pH); assay type: cell-based; conditions: for methane detected: 13.3 mM, after 20 days; for gas production / production of propionate / production of valerate, isovalerate, isobutyrate and cresol: carvacrol or thymol at 13.3 or 16.75 mM, or combination to equal 16.75 mM; for lactate accumulation: oil added to swine waste; for concentration required to suppress most fermentation activity: swine waste slurry, same ratio (50:35:15)
Method: Swine waste was processed similarly to the method described in Example 1. Fecal waste was randomly collected within 15 min of being excreted from animals fed a finishing diet of 85% corn and 11% soybean meal. Swine urine was collected from catheterized animals. Feces, urine, and distilled water in the ratio 50:35:15 were blended (Waring Inc., New Hartford, Conn.) for 1 min. Four replicate samples were obtained from this slurry and analyzed for various parameters and were considered as time 0. The waste slurry was divided into 500 ml aliquots and antimicrobial plant oils were added directly at the desired concentration, with one exception, in which carvacrol was dissolved 1:1 v:v in 95% ethanol, or 2 ml carvacrol/ethanol addition in these 500 ml slurries. The slurry was blended 1 min to provide a homogenous mixing of the antimicrobial oils and poured into 1-liter Erlenmeyer flasks, which were gassed with nitrogen (also after each sampling), sealed with a rubber stopper and left stationary at ambient temperature (25° C.). Treatments were in duplicate, and the contents of the flasks were gently swirled before being sampled at the days indicated in FIGS. 3-5. Gas volume and composition were analyzed in these flasks (anoxic slurry).
Head space gas was measured by displacement of a water-lubricated glass piston in a 50 ml syringe [Miller, T. L. et al. (1974), Appl Environ 27:985-987]. A 20-gauge needle with a Leurlok was inserted through the stopper, and a three-way valve was attached to the needle to allow gas volume to be periodically determined. Methane and hydrogen were analyzed as previously described [Varel, V. H. et al. (2000), Curr Microbiol 40:392-397].
(§1) A 15-ml waste sample was collected from each flask. The sample was mixed with 15 ml of 0.5 M H2SO4, centrifuged at 2000×g for 20 min at 4° C., and stored at −20° C. until analyzed [Varel, V. H. et al. (1999), J Anim Sci 77:1162-1168]. L-Lactate concentrations were determined with a membrane-immobilized system involving lactate oxidase (Model 27, Yellow Springs Instrument Co., Yellow Springs, Ohio, USA). Short-chain volatile fatty acids (VFAs; acetate, propionate, butyrate, valerate, isobutyrate, isovalerate) and aromatic compounds (cresol, indole, skatole, 4-ethylphenol, phenol) were determined in an aliquot from the original acidified sample. After thawing, the sample was centrifuged at 5° C., 10,000×g for 5 min. A 0.5 ml aliquot of the supernatant was combined with an internal standard, ethyl butyrate (0.25 mM final concentration), the sample was acidified with 0.4 ml of 3 M HC1, 0.8 ml ethyl ether was added, the sample was shaken vigorously for 1 min, and centrifuged at 5° C., 16,000×g for 1 min, and the ether phase was analyzed. To determine carvacrol and thymol concentrations, an aliquot of the original acidified sample which was not centrifuged, was treated as indicated above and extracted with ether twice. […] Aromatic, VFAs, thymol and carvacrol were analyzed with a Hewlett Packard 6890 gas chromatograph equipped with a flame ionization detector and a Hewlett Packard 5973 mass selective detector. Compounds were separated on a 30 m×0.32 mm diameter (0.5 μm film thickness) Innowax PEG column using the following program parameters: flow rate was 1.9 ml min^−1, initial temperature was 140° C., initial time was 3 min with a temperature ramp of 7.5° C. min^−1, with a final temperature of 230° C. for 4 min. Injector and detector temperatures were 250° C. Data were analyzed as a split-plot in time with the GLM procedure of (SAS).

fecal coliforms = fecal coliforms in swine waste, open jars; assay type: cell-based
Method: (§2) Swine waste was collected and processed into a slurry as in Example 3. As in Example 2, the slurry was added to wide-mouth (10 cm) jars (17 cm tall, 13.5 cm in diameter, 1.6-liter volume) with the test antimicrobial additives, and plastic lids were placed to cover approximately 90% of the jar opening to prevent moisture loss over the experimental period. The sampling procedure was similar to that described above in Example 3, except no stirring or mixing occurred before the contents were sampled, and treatments were in triplicate.
(§3) Fecal coliforms were enumerated with 3 M Petrifilm Escherichia coli coliform count plates (3 M Microbiology Products, St. Paul, Minn.). Both of the carvacrol treatments reduced (P<0.05) the number of viable anaerobic bacteria in the waste within 2 days when compared to the controls (Table 2). This effect was sustained for 28 days. The initial decrease in the concentrations of anaerobic bacteria from day 0 to 2 in the control is presumably because VFAs increase in this batch system and become lethal to a select population of organisms.

stored cattle waste [2] = assay: fermentation of stored cattle waste in open wide-mouthed jars (VFA, butyrate); assay type: cell-based; conditions: for production of short-chain volatile fatty acids: 13.3 mM individually, 56 days, versus combination of the two oils (6.7 mM each); for concentration that suppressed essentially all fermentation activity: cattle waste slurry of feces, urine and water (50:35:15)
Method: Waste was collected and processed as in Example 1. The waste slurry was divided into 1-liter aliquots and poured into wide-mouth (10 cm) jars (17 cm tall, 13.5 cm diameter, 1.6-liters). The plant oils (carvacrol, thymol and α-pinene) were added to the slurry without stirring or mixing. Plastic lids provided with the jars were used to cover approximately 90% of the jar opening to prevent moisture loss over the 56-day experimental period. A wide mouth pipette was inserted into the slurry from top to bottom at which time slurry contents were simultaneously withdrawn. Total VFA production and butyrate production were measured as described in Example 1.

stored swine waste [3] = assay: VFA production from swine waste in open jars; assay type: cell-based
Method: as §1, with “analyzed.” for “analyzed. To determine carvacrol and thymol concentrations, an aliquot of the original acidified sample which was not centrifuged, was treated as indicated above and extracted with ether twice.”, “Compounds were separated on a 30 m×0.32 mm diameter (0.5 μm film thickness) Innowax PEG column using the following program parameters: flow rate was 1.9 ml min^−1, initial temperature was 140° C., initial time was 3 min with a temperature ramp of 7.5° C. min^−1, with a final temperature of 230° C. for 4 min. Injector and detector temperatures were 250° C.” left out, “(SAS). […]” for “(SAS).”

[4] = recovery of added oil from liquid and solid fractions of swine waste, sealed flasks; assay type: physicochemical
Method: Swine waste was processed similarly to the method described in Example 1. Fecal waste was randomly collected within 15 min of being excreted from animals fed a finishing diet of 85% corn and 11% soybean meal. Swine urine was collected from catheterized animals. Feces, urine, and distilled water in the ratio 50:35:15 were blended (Waring Inc., New Hartford, Conn.) for 1 min. Four replicate samples were obtained from this slurry and analyzed for various parameters and were considered as time 0. […] Gas volume and composition were analyzed in these flasks (anoxic slurry).
A 15-ml waste sample was collected from each flask. The sample was mixed with 15 ml of 0.5 M H2SO4, centrifuged at 2000×g for 20 min at 4° C., and stored at −20° C. until analyzed [Varel, V. H. et al. (1999), J Anim Sci 77:1162-1168]. L-Lactate concentrations were determined with a membrane-immobilized system involving lactate oxidase (Model 27, Yellow Springs Instrument Co., Yellow Springs, Ohio, USA). Short-chain volatile fatty acids (VFAs; acetate, propionate, butyrate, valerate, isobutyrate, isovalerate) and aromatic compounds (cresol, indole, skatole, 4-ethylphenol, phenol) were determined in an aliquot from the original acidified sample. […] Data were analyzed as a split-plot in time with the GLM procedure of (SAS).

Salmonella typhimurium = conditions: pure culture system; Helander et al.; cited from earlier work
[5] = tested on: total culturable anaerobic bacteria; assay: total culturable anaerobic bacteria in swine waste, open jars; assay type: cell-based; conditions: 13.3 mM and 20 mM; within 2 days versus controls (P<0.05); sustained for 28 days
Method: as §2, §3

E. coli O157:H7 = conditions: cited from earlier work; for concentration that will kill E. coli O157:H7: Kim et al.; for minimum inhibitory concentration: pure culture system, Helander et al.
stored cattle waste [6] = assay: VFA and L-lactate production from cattle waste in anoxic flasks, eugenol versus thymol; assay type: cell-based; conditions: for L-lactate production: cattle waste, eugenol at all concentrations evaluated
Method: Waste was collected and processed as in Example 1. The waste slurry was divided into 500-ml aliquots and eugenol or thymol were added directly at the desired concentration. The slurry was blended 1 min to provide a homogeneous mixing of the antimicrobial oils and poured into a 1-liter Erlenmeyer flask, which was sealed with a rubber stopper and left stationary at ambient temperature (25° C.). Treatments were in triplicate, and the contents of the flask were gently swirled before being sampled at the times indicated. Short-chain volatile fatty acids and L-lactate in the flasks were determined as described in Example 1. […] This is a desirable effect in some cases because it rapidly lowers the pH which contributes to inhibiting the overall fermentation of the wastes, and more ammonia nitrogen will be retained in the wastes.

Cc1ccc(C(C)C)cc1O [carvacrol]
methane detected (stored swine waste [1]): Trace amounts
gas production (stored swine waste [1]): essentially stopped most gas production
production of propionate (stored swine waste [1]): inhibited
production of valerate, isovalerate, isobutyrate and cresol (stored swine waste [1]): prevented any production
lactate accumulation (stored swine waste [1]): accumulated
concentration required to suppress most fermentation activity (stored swine waste [1]): 16.75 mM
fecal coliforms (fecal coliforms; 13.3 mM, at 14 days): none were detected
fecal coliforms (fecal coliforms; 13.3 mM, within 2 days (P<0.01)): reduced
fecal coliforms (fecal coliforms; 20 mM, after 2 days): No fecal coliforms were detected
production of short-chain volatile fatty acids (stored cattle waste [2]): equally or slightly better
concentration that suppressed essentially all fermentation activity (stored cattle waste [2]): 13.3 mM
effect of dissolving in ethanol on ability to inhibit VFA production (stored swine waste [3]; dissolved in ethanol before addition (P>0.05)): no effect
production of VFAs (stored swine waste [3]; three concentrations (P<0.01), open jars): inhibited the production of VFAs
recoveries compared with thymol ([4]; sealed flasks): similar
minimum inhibitory concentration (Salmonella typhimurium): 1000 µM (≈ 150 µg/mL)
number of viable anaerobic bacteria [5]: reduced
concentration that will kill E. coli O157:H7 (E. coli O157:H7): 500 µg/mL
concentration that will kill E. coli O157:H7 (E. coli O157:H7; value in brackets): 3.3 mM
minimum inhibitory concentration (E. coli O157:H7): 3000 µM (≈ 451 µg/mL)

C=CCc1ccc(O)c(OC)c1 [eugenol]
control of total VFA production compared to 2000 ppm (13.3 mM) thymol (stored cattle waste [6]; 2000 or 2500 ppm (13.3 or 16 mM), 42-day period): equally or more effective
L-lactate production (stored cattle waste [6]): stimulates L-lactate production
inhibition of VFA production, dependence (stored cattle waste [6]; various concentrations): concentration dependent

Cc1ccc(C(C)C)c(O)c1 [thymol]
methane detected (stored swine waste [1]): Trace amounts
gas production (stored swine waste [1]): essentially stopped most gas production
production of propionate (stored swine waste [1]): inhibited
production of valerate, isovalerate, isobutyrate and cresol (stored swine waste [1]): prevented any production
lactate accumulation (stored swine waste [1]): accumulated
concentration required to suppress most fermentation activity (stored swine waste [1]): 16.75 mM
production of short-chain volatile fatty acids (stored cattle waste [2]): equally or slightly better
concentration that suppressed essentially all fermentation activity (stored cattle waste [2]): 13.3 mM
thymol recovered from the liquid or supernatant fraction ([4]; % of added, swine waste): less than 25%
minimum inhibitory concentration (Salmonella typhimurium): 1000 µM (≈ 150 µg/mL)
L-lactate production (stored cattle waste [6]): inhibits production of L-lactate
minimum inhibitory concentration (E. coli O157:H7): 3000 µM (≈ 451 µg/mL)

Reference: US6902726B1, “Reduction of odor gases from waste using plant-derived oils” (The United States of America as represented by the …, priority 2001, dated 2005)
